Results taken from ChEMBL document CHEMBL5303573, “Mapping human microbiome drug metabolism by gut bacteria and their genes” (Nature, 2019).

How the values were obtained:
[1] = The drug is tested on Ruminococcus torques strain: ATCC27756 for biotransformation. The drug concentrations were measured before and after a 12-h incubation by liquid-chromatography-coupled mass spectrometry (LC–MS); format: ADME; design: dose 2 uM, timepoint 0 vs 12 hours; conditions: 2 µM
[2] = parabacteroides distasonis, 12 h, 2 µM
Description: The drug is tested on Parabacteroides distasonis strain: ATCC8503 for biotransformation. The drug concentrations were measured before and after a 12-h incubation by liquid-chromatography-coupled mass spectrometry (LC–MS)

[3] = The drug is tested on Bacteroides pectinophilus strain: ATCC43243 for biotransformation. The drug concentrations were measured before and after a 12-h incubation by liquid-chromatography-coupled mass spectrometry (LC–MS); conditions: 2 µM
[4] = The drug is tested on Bacteroides sp. WH2 strain: WH2 for biotransformation. The drug concentrations were measured before and after a 12-h incubation by liquid-chromatography-coupled mass spectrometry (LC–MS); conditions: bacteroides sp. wh2, 12 h, 2 µM
[5] = The drug is tested on Bacteroides dorei strain: DSM17855 for biotransformation. The drug concentrations were measured before and after a 12-h incubation by liquid-chromatography-coupled mass spectrometry (LC–MS); conditions: phocaeicola dorei, 2 µM
[6] = The drug is tested on Bacteroides finegoldii strain: DSM17565 for biotransformation. The drug concentrations were measured before and after a 12-h incubation by liquid-chromatography-coupled mass spectrometry (LC–MS); conditions: 2 µM
[7] = limosilactobacillus reuteri cf48-3a, 12 h, 2 µM
Description: The drug is tested on Lactobacillus reuteri CF48-3A strain: BEI HM-102 for biotransformation. The drug concentrations were measured before and after a 12-h incubation by liquid-chromatography-coupled mass spectrometry (LC–MS)

[8] = The drug is tested on Anaerotruncus colihominis strain: DSM17241 for biotransformation. The drug concentrations were measured before and after a 12-h incubation by liquid-chromatography-coupled mass spectrometry (LC–MS); conditions: 2 µM
[9] = The drug is tested on Collinsella intestinalis strain: DSM13280 for biotransformation. The drug concentrations were measured before and after a 12-h incubation by liquid-chromatography-coupled mass spectrometry (LC–MS); conditions: 2 µM
[10] = The drug is tested on Blautia hansenii strain: DSM20583 for biotransformation. The drug concentrations were measured before and after a 12-h incubation by liquid-chromatography-coupled mass spectrometry (LC–MS); conditions: 2 µM
[11] = bacteroides thetaiotaomicron, 12 h, 2 µM
Description: The drug is tested on Bacteroides thetaiotaomicron strain: 7330 for biotransformation. The drug concentrations were measured before and after a 12-h incubation by liquid-chromatography-coupled mass spectrometry (LC–MS)

[12] = The drug is tested on Bifidobacterium longum subsp. Infantis strain: CCUG52486 for biotransformation. The drug concentrations were measured before and after a 12-h incubation by liquid-chromatography-coupled mass spectrometry (LC–MS); conditions: 2 µM
[13] = The drug is tested on Clostridium sp. strain: fecal isolate for biotransformation. The drug concentrations were measured before and after a 12-h incubation by liquid-chromatography-coupled mass spectrometry (LC–MS); conditions: 2 µM
[14] = bacteroides stercoris, 12 h, 2 µM
Description: The drug is tested on Bacteroides stercoris strain: ATCC43183 for biotransformation. The drug concentrations were measured before and after a 12-h incubation by liquid-chromatography-coupled mass spectrometry (LC–MS)

[15] = The drug is tested on Anaerococcus hydrogenalis strain: DSM7454 for biotransformation. The drug concentrations were measured before and after a 12-h incubation by liquid-chromatography-coupled mass spectrometry (LC–MS); conditions: 2 µM
[16] = The drug is tested on Eubacterium rectale strain: ATCC33656 for biotransformation. The drug concentrations were measured before and after a 12-h incubation by liquid-chromatography-coupled mass spectrometry (LC–MS); conditions: agathobacter rectalis, 2 µM
[17] = The drug is tested on Providencia rettgeri strain: DSM1131 for biotransformation. The drug concentrations were measured before and after a 12-h incubation by liquid-chromatography-coupled mass spectrometry (LC–MS); format: ADME; design: dose 2 uM, timepoint 0 vs 12 hours; conditions: 2 µM
[18] = bacteroides eggerthii, 12 h, 2 µM
Description: The drug is tested on Bacteroides eggerthii strain: DSM20697 for biotransformation. The drug concentrations were measured before and after a 12-h incubation by liquid-chromatography-coupled mass spectrometry (LC–MS)

[19] = The drug is tested on Bifidobacterium breve strain: DSM20213 for biotransformation. The drug concentrations were measured before and after a 12-h incubation by liquid-chromatography-coupled mass spectrometry (LC–MS); conditions: 2 µM
[20] = The drug is tested on Bacteroides ovatus strain: ATCC8483 for biotransformation. The drug concentrations were measured before and after a 12-h incubation by liquid-chromatography-coupled mass spectrometry (LC–MS); conditions: 2 µM

| Structure (SMILES) | Bacterial Biotransformation [1] | Bacterial Biotransformation [2] | Bacterial Biotransformation [3] | Bacterial Biotransformation [4] | Bacterial Biotransformation [5] | Bacterial Biotransformation [6] | Bacterial Biotransformation [7] | Bacterial Biotransformation [8] | Bacterial Biotransformation [9] | Bacterial Biotransformation [10] | Bacterial Biotransformation [11] | Bacterial Biotransformation [12] | Bacterial Biotransformation [13] | Bacterial Biotransformation [14] | Bacterial Biotransformation [15] | Bacterial Biotransformation [16] | Bacterial Biotransformation [17] | Bacterial Biotransformation [18] | Bacterial Biotransformation [19] | Bacterial Biotransformation [20] |
| --- | --- | --- | --- | --- | --- | --- | --- | --- | --- | --- | --- | --- | --- | --- | --- | --- | --- | --- | --- | --- |
| O=c1[nH]c2ccccc2n1CCCN1CCC(n2c(=O)[nH]c3cc(Cl)ccc32)CC1 [DOMPERIDONE] | Compound NOT metabolized | Compound NOT metabolized | Compound NOT metabolized | Compound NOT metabolized | Compound NOT metabolized | Compound NOT metabolized | Compound NOT metabolized | Compound NOT metabolized | Compound NOT metabolized | Compound NOT metabolized | Compound NOT metabolized | Compound NOT metabolized | Compound NOT metabolized | Compound NOT metabolized | Compound NOT metabolized | Compound NOT metabolized | Compound NOT metabolized | Compound NOT metabolized | Compound NOT metabolized | Compound NOT metabolized |
| COc1ccc2c(c1)c(CC(=O)O)c(C)n2C(=O)c1ccc(Cl)cc1 [INDOMETHACIN] | Compound NOT metabolized | Compound metabolized | Compound metabolized | Compound metabolized | Compound metabolized | Compound metabolized | Compound metabolized | Compound NOT metabolized | Compound NOT metabolized | Compound NOT metabolized | Compound metabolized | Compound metabolized | Compound NOT metabolized | Compound metabolized | Compound NOT metabolized | Compound NOT metabolized | Compound NOT metabolized | Compound NOT metabolized | Compound NOT metabolized | Compound metabolized |
| CCC(C)n1ncn(-c2ccc(N3CCN(c4ccc(OCC5COC(Cn6cncn6)(c6ccc(Cl)cc6Cl)O5)cc4)CC3)cc2)c1=O (stereo not given) [ITRACONAZOLE] | Compound NOT metabolized | Compound NOT metabolized | Compound NOT metabolized | Compound NOT metabolized | Compound NOT metabolized | Compound NOT metabolized | Compound NOT metabolized | Compound NOT metabolized | Compound NOT metabolized | Compound metabolized | Compound NOT metabolized | Compound NOT metabolized | Compound metabolized | Compound NOT metabolized | Compound NOT metabolized | Compound NOT metabolized | Compound NOT metabolized | Compound NOT metabolized | Compound NOT metabolized | Compound NOT metabolized |
| Cc1nc(Nc2ncc(C(=O)Nc3c(C)cccc3Cl)s2)cc(N2CCN(CCO)CC2)n1.O [DASATINIB] | Compound NOT metabolized | Compound metabolized | Compound NOT metabolized | Compound NOT metabolized | Compound metabolized | Compound metabolized | Compound metabolized | Compound metabolized | Compound NOT metabolized | Compound metabolized | Compound NOT metabolized | Compound NOT metabolized | Compound metabolized | Compound metabolized | Compound NOT metabolized | Compound NOT metabolized | Compound NOT metabolized | Compound NOT metabolized | Compound NOT metabolized | Compound NOT metabolized |
| CCN(CC)C(=O)C1(c2ccccc2)CC1CN (stereo not given) | Compound NOT metabolized | Compound NOT metabolized | Compound NOT metabolized | Compound NOT metabolized | Compound NOT metabolized | Compound NOT metabolized | Compound NOT metabolized | Compound NOT metabolized | Compound NOT metabolized | Compound NOT metabolized | Compound NOT metabolized | Compound NOT metabolized | Compound NOT metabolized | Compound NOT metabolized | Compound NOT metabolized | Compound NOT metabolized | Compound NOT metabolized | Compound NOT metabolized | Compound NOT metabolized | Compound NOT metabolized |
